# Reference: patent publication US10082498B2, “Methods for treating ADHD and bipolar disorder using a membrane potential ratio test” (PSYCHNOSTICS, LLC., priority 2013, dated 2018)
# Counter-ions that a name gives are not always drawn.
# Key:
# whole blood cells = assay: Membrane potential ratio (MPR) test on blood cells of patients under drug treatment; format: in vivo, human; settings: for MPR value: Example 6, patient with ADHD
# Description: The MPR™ test is used to diagnose BD and ADHD. Briefly, the MPR™ test involves measuring the membrane potential of the human cells in a test buffer and in a reference buffer and calculating the ratio of these membrane potentials.
# Briefly, the membrane potentials of whole blood cells are measured using two different buffers in a plate reader. The mean MPR™ value is the ratio between the membrane potential of a patient's cells in the test buffer as the numerator and that in the reference buffer as the denominator determined by statistical analysis of multiple measurements, using the ANOVA and the multiple statistical regression analysis.
# The membrane potential of a patient's cells may be ascertained by any conventional method, such as by examining the fluorescence intensity of a potential-sensitive lipophilic fluorescent dye. The membrane potential is directly proportional to the intensity of fluorescence according to the following equation: I=CV, wherein I is the fluorescence intensity of a lipophilic fluorescent dye, V is the voltage or membrane potential, and C is a constant that can vary depending on a number of factors such as, but not limited to, temperature, lamp intensity, number of cells, concentration of the fluorescent dye, incubation time, and lipid composition of cells used. The calibration and determination of the value for C can be a cumbersome and unreliable procedure. Thus, according to the present invention, by using the ratio of the fluorescence intensity (I1) of one sample of cells to the fluorescence intensity (I2) of another sample of cells, the constant (C) is canceled out. Such ratio-metric measurements are preferred over absolute measurements.
# (§1) Certain patients from the outpatient private psychiatric practice were retested after widely varying intervals as shown in the following Examples. Participation was completely voluntary and only allowed after the signing of a consent form. For the purpose of maintaining the privacy of the subject the lab work was performed confidentially (called blinding of the tester). Each patient was assigned an identification (ID) number and only the clinician had access to the key which correlated ID numbers with patient names.
# [1] = tested on: human patient with BD or ADHD; assay: Clinical response of outpatient psychiatric patients to medication (clinical vignettes); format: in vivo; settings: for Clinical stabilization of Bipolar I Disorder: Example 4, person, combination: aripiperazole, citalopram, oxcarbazepine and alprazolam
# Description: as §1
# human patient with ADHD = assay: WHO screener for ADHD symptoms (patient self-report); format: in vivo; settings: for WHO screener, score on the 6 screening items / WHO screener, score out of the total possible of 18: Example 5, combination: sertraline 50 mg per day and lamotrigine 200 mg per day
# Description: Certain patients from the outpatient private psychiatric practice were retested after widely varying intervals as shown in the following Examples. Participation was completely voluntary and only allowed after the signing of a consent form. For the purpose of maintaining the privacy of the subject the lab work was performed confidentially (called blinding of the tester). Each patient was assigned an identification (ID) number and only the clinician had access to the key which correlated ID numbers with patient names. Because these were and are patients presenting for treatment, the priority has been their treatment. They have manifested all the typical variability found in clinical practice, and the resulting data points obtained are those possible under these circumstances. The paired MPR™ results are presented along with clinical vignettes. The patients with repeated tests are shown in example 1 and their vignettes are elucidated here. This clinical data and its interpretation provide the basis for the claims of the invention.
# human patient = assay: Side effects reported by patients on medication; format: in vivo; settings: for Side effects: Example 5, combination: sertraline 50 mg per day and lamotrigine 200 mg per day
# [2] = Example 4, combination: escitalopram 10 mg per day, aripiperazole 2 mg per day, alprazolam 0.5 mg twice a day as needed, tapering from oxcarbazepine (A in FIG. 4)
# [3] = Example 2, combination: dextroamphetamine sulfate 5 mg three times per day and extended release dexmethylphenidate 20 mg morning and afternoon (C in FIG. 2)
# [4] = Example 5, combination: sertraline 50 mg per day and lamotrigine 200 mg per day (B in FIG. 5)
# [5] = Example 3, person with BD, combination: lithium, quetiapine and mirtazapine (B in FIG. 3)
# [6] = Example 1, combination: selegiline transdermal 12 mg per 24 hours and mixed amphetamine salts 15 mg per day
compound,measurement,setting,value
Cc1nnc2n1-c1ccc(Cl)cc1C(c1ccccc1)=NC2 [alprazolam],MPR test range,whole blood cells; [2],bipolar transition range
same,Clinical stabilization of Bipolar I Disorder,[1],not fully stabilized
O=C1CCc2ccc(OCCCCN3CCN(c4cccc(Cl)c4Cl)CC3)cc2N1 [aripiperazole],MPR test range,whole blood cells; [2],bipolar transition range
same,Clinical stabilization of Bipolar I Disorder,[1],not fully stabilized
CC(NC(C)(C)C)C(=O)c1cccc(Cl)c1 (stereo not drawn) [bupropion],Clinical benefit by history,"[1]; Example 5, earlier treatment, patient history",had not offered a benefit
C[C@H](N)Cc1ccccc1 [dextroamphetamine sulfate],MPR test result range,whole blood cells; [3],ADHD transition range
CN(C)CCC[C@@]1(c2ccc(F)cc2)OCc2cc(C#N)ccc21 [escitalopram],MPR test range,whole blood cells; [2],bipolar transition range
"COC(=O)[C@H](c1ccccc1)[C@H]1CCCCN1 [extended release dexmethylphenidate, dexmethylphenidate]",MPR test result range,whole blood cells; [3],ADHD transition range
same,Clinical benefit as reported by patient,"[1]; Example 2, combination of dextroamphetamine and extended release dexmethylphenidate, compared with mixed amphetamine salts 40 mg",not working as well
Nc1nnc(-c2cccc(Cl)c2Cl)c(N)n1 [lamotrigine],MPR result range,whole blood cells; [4],ADHD range
same,"WHO screener, score on the 6 screening items",human patient with ADHD,0
same,"WHO screener, score out of the total possible of 18",human patient with ADHD,1
same,Clinical benefit,"[1]; Example 5, tapered up as per a starter pack, subject able to return to work",offered benefit quickly
same,Side effects,human patient,without complaint of side effects
COC(=O)C(c1ccccc1)C1CCCCN1 (stereo not drawn) [methylphenidate],MPR value,whole blood cells; 10 mg (FIG. 6),close to the BD side of the negative range
same,MPR value,whole blood cells; dose reduced to 5 mg (FIG. 6),moved up close to the right value
same,Clinical effect on ADHD symptoms reported by subject,"[1]; Example 4, 10 mg twice per day, later 10 mg three times per day, added to BD medication",benefit
CN1CCN2c3ncccc3Cc3ccccc3C2C1 (stereo not drawn) [mirtazapine],MPR result range,whole blood cells; [5],negative (normal) range
same,Outcome of trial of adding the drug (depression),"[1]; Example 1, added to mixed amphetamine salts",unsuccessful
NC(=O)N1c2ccccc2CC(=O)c2ccccc21 [oxcarbazepine],Clinical stabilization of Bipolar I Disorder,[1],not fully stabilized
OCCN1CCN(CCCN2c3ccccc3Sc3ccc(Cl)cc32)CC1 [perphenazine],Side effect leading to discontinuation,"human patient; Example 3, very low dosage for neurotic anxiety",blurred vision
OCCOCCN1CCN(C2=Nc3ccccc3Sc3ccccc32)CC1 [quetiapine],MPR result range,whole blood cells; [5],negative (normal) range
same,MPR test range,"whole blood cells; Example 4, after addition of lithium 600 mg per day and Seroquel 100 mg at bedtime (B in FIG. 4)",ADHD range
same,Mood stabilization,"[1]; Example 4, addition of lithium 600 mg per day and Seroquel 100 mg at bedtime",further stabilized clinically
"C#CCN(C)[C@H](C)Cc1ccccc1 [selegiline transdermal, selegiline]","WHO screener, positive items of the six items",human patient with ADHD; [6],1
CN[C@H]1CC[C@@H](c2ccc(Cl)c(Cl)c2)c2ccccc21 [sertraline],MPR result range,whole blood cells; [4],ADHD range
same,MPR result range,"whole blood cells; Example 5, initial evaluation, subject on sertraline 100 mg at bedtime (A in FIG. 5)",BD transition range
same,"WHO screener, score on the 6 screening items",human patient with ADHD,0
same,"WHO screener, score out of the total possible of 18",human patient with ADHD,1
same,Clinical effect on depression according to the subject,"[1]; Example 5, person, 100 mg at bedtime",no longer working
same,Side effects,human patient,without complaint of side effects
mixed amphetamine salts,MPR value range,"whole blood cells; Example 1, blood drawn third week after stopping mixed amphetamine salts (B in FIG. 1)",ADHD range
same,MPR value range,"whole blood cells; Example 1, person, taking only mixed amphetamine salts (A in FIG. 1)",negative (normal) range
same,MPR test result range,"whole blood cells; Example 2, 40 mg every morning, with lamotrigine for BD (B in FIG. 2)",negative range
same,"WHO screener, positive items of the six items",human patient with ADHD; [6],1
same,"WHO screener, positive items of the 6 items","human patient with ADHD; Example 1, taking only mixed amphetamine salts",3
same,"WHO screener, positive items of the 6 items","human patient with ADHD; Example 1, two weeks after stopping mixed amphetamine salts",4
same,"WHO screener, positive items of the six items","human patient with ADHD; Example 2, 40 mg every morning",two
same,Symptomatic control of ADHD,"[1]; Example 2, 40 mg every morning",good symptomatic control
